Measured values from patent publication US20110160228A1, “DIHYDRO-ISO-CA-4 AND ANALOGUES: POTENT CYTOTOXICS, INHIBITORS OF TUBULIN POLYMERIZATION” (CENTRE NATIONAL DE LA RECHERCHE SCIENRIFIQUE (CNRS), priority 2008, published 2011).
pIC50: −log10 of the molar value. Read-outs that look alike come from different tables or passages of the source. Each block holds one compound with its values, some of them ahead of it.

How the values were obtained:
[1] = tested on: mouse colon adenocarcinoma 26; settings: cited from earlier work
[2] = cited from earlier work
HCT-15 cells = settings: read-out: IC50, cytotoxic effect; cited from earlier work
HCT116 = assay: In vitro cytotoxicity, cell viability with CellTiter-Blue; format: cell-based; settings: Homo sapiens, HCT-116, 72 h
Description: (§1) The biological activity of the compounds of the invention was studied in vitro on 7 human cancer cell lines of different tissular origin (HCT116: coloreactal carcinoma; K562: chronic myeloid leukaemia; B16-F10: melanoma; U87: glioblastoma; H1299: non-small cell lung cancer and MDA-MB 231 and MDA-MB 435: breast cancer). The cells chosen for this study were incubated at 37° C. in the presence of one of the compounds added to the culture medium at different concentrations. All the experiments conducted allowed determination of the extent of toxicity of the tested compound, effect thereof on the cell cycle process and capacity thereof to induce cell death by apoptosis.
(§2) The cancer cell lines were obtained from the American Type Culture Collection (Rockville, Md., USA) and were cultured following the supplier's recommendations.
The cells H1299, U87, MDA-MB231, MDA-MB435 and B16F10 were cultured in Dulbecco Minimal Essential Medium (DMEM) containing 4.5 g/l glucose, supplemented with 10% foetal calf serum and 1% glutamine. The K562 and HCT116 cells were cultured in RPMI 1640 medium containing 10% foetal calf serum and 1% glutamine. All the cell lines were held in culture at 37° C. in a humid atmosphere containing 5% CO2. Cell viability was evaluated using the reagent CellTiter-Blue™ (Promega, Wis., USA) paying heed to the manufacturer's instructions. The cells were seeded in 96-well culture plates to the proportion of 5000 cells per well in 50 μl culture medium. […] All the compounds were tested in triplicate for each defined concentration, and each experiment was repeated 3 times. After 72 hours of incubation, 20 μl resazurin were added to each well. After 2 hours of incubation, the emitted fluorescence was measured at 590 nm after excitation at 560 nm using a fluorescence reader of Victor type (Perkin-Elmer, USA).

tubulin = target: T1, tubulin (Sus scrofa, UniProt P02550+P02554); assay: Inhibition of tubulin polymerization followed by turbidimetry; format: biochemical, porcine; settings: for Inhibiting activity of tubulin polymerisation, in words: compared with CA-4 or between the enantiomers; for pIC50: tubulin from porcine brain, turbidimetry at 350 nm
T1 construct: from porcine brain in which it forms 20 to 25% of soluble proteins; from tissue; host or cells: porcine brain
Description: These tests were conducted on tubulin purified using the Shelanski method (Shelanski, M. C.; Gaskin, F.; Cantor, C. R. Proc. Natl. Acad. Sci. USA, 1973, 70, 765-768) from porcine brain in which it forms 20 to 25% of soluble proteins. The purification method is based on temperature-dependent assembly-disassembly cycles. Polymerisation of tubulin was followed by turbidimetry using the Gaskin method (Gaskin, F.; Cantor, C. R.; Shelanski, M. L.; J. Bio. Mol., 1974, 89, 737) at a wavelength of 350 nm. The different samples were dissolved in DMSO and incubated 10 minutes at 37° C. then 5 minutes at 0° C.
The compound CA-4 and DMSO were used as reference.

[3] = tested on: mouse P-388 leukemia cells; settings: cited from earlier work
MDA-MB 231 = assay: In vitro cytotoxicity, cell viability with CellTiter-Blue; format: cell-based; settings: Homo sapiens, read-out: IC50 for different cell lines, M231
Description: as §1, §2
The cells H1299, U87, MDA-MB231, MDA-MB435 and B16F10 were cultured in Dulbecco Minimal Essential Medium (DMEM) containing 4.5 g/l glucose, supplemented with 10% foetal calf serum and 1% glutamine. […] Cell viability was evaluated using the reagent CellTiter-Blue™ (Promega, Wis., USA) paying heed to the manufacturer's instructions. […] After 2 hours of incubation, the emitted fluorescence was measured at 590 nm after excitation at 560 nm using a fluorescence reader of Victor type (Perkin-Elmer, USA).

EAhy926 = assay: Formation of vascular tubes on Matrigel (anti-vascular activity); format: cell-based, human; settings: treatment time of 3 hours at 0.5 μM or 1 μM
Description: The Matrigel™ is deposited in 96-well culture plates to the proportion of 70 μl/well and left to incubate at 37° C. for 45 minutes to allow polymerization thereof. […] After 3 hours of incubation at 37° C., the cells were observed and photographed using an optical microscope of TE2000 type (Nikon, France) equipped with a camera (FIG. 3).
In parallel, 15,000 EAhy926 cells in suspension in 150 μl of culture medium were seeded in each of the wells containing Matrigel™. […] The effect of the product was observed and photographed after 3 hours of incubation using an optical microscope (FIG. 4).

[4] = 72 hours of incubation, read-out: IC50 for different cell lines, HCT116

T1 sequence (P02554 whole entry): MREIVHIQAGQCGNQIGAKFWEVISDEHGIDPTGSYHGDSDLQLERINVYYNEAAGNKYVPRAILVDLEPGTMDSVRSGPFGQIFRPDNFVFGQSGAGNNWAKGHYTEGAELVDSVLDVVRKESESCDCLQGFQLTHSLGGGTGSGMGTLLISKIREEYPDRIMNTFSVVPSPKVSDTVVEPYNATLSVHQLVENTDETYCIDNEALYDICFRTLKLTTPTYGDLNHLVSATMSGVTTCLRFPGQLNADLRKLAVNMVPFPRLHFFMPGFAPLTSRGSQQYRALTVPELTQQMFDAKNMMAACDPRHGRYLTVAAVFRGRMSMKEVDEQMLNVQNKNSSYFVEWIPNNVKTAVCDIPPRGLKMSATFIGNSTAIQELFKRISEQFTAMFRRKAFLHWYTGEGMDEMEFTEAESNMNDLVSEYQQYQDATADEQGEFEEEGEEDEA
T1 sequence (P02550 whole entry): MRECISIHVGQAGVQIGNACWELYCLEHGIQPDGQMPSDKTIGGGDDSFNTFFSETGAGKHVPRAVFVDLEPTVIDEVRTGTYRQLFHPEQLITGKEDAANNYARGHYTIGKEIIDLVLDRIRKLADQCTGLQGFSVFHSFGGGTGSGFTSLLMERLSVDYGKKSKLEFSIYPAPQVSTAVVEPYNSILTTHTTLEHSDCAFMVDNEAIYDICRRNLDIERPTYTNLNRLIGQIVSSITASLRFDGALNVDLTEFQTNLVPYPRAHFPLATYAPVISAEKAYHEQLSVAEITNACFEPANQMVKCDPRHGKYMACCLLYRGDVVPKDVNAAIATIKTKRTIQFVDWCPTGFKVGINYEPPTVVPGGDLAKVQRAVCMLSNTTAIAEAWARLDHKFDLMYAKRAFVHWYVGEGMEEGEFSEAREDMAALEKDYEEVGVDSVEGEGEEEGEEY

SMILES: COc1ccc(/C=C\c2cc(OC)c(OC)c(OC)c2)cc1O [CA-4, combretastatin A-4]
- Antitumor activity in vivo [1]: no antitumor activity is observed
- Solubility in water [2]: low solubility in water
- pIC50 (HCT-15 cells): 9.05

SMILES: COc1ccc(C(C)c2cc(OC)c(OC)c(OC)c2)cc1N (centres unmarked) [Compound I-21]
- pIC50 (HCT116; read-out: IC50 for different cell lines, HCT116, 72 hours of incubation): 7.22

SMILES: COc1ccc(C(c2cc(OC)c(OC)c(OC)c2)C(F)F)cc1O (centres unmarked) [Compound I-20]
- pIC50 (HCT116; [4]): 7.52

- pIC50 (tubulin): 5.10 to 5.17
SMILES: COc1ccc(C(C)c2cc(OC)c(OC)c(OC)c2)cc1O (single isomer, unassigned) [Compound I-1b]
- Inhibiting activity of tubulin polymerisation, in words (tubulin): the same capacity to inhibit tubulin polymerisation

SMILES: COc1ccc(C=Cc2cc(OC)c(OC)c(OC)c2)cc1O (single isomer, unassigned) [E isomer of CA-4]
- Cytotoxic activity, times lower than the natural Z isomer [3]: approximately 60 times

SMILES: COc1ccc(C(CC#N)c2cc(OC)c(OC)c(OC)c2)cc1O (centres unmarked) [Compound I-19]
- pIC50 (HCT116; [4]): 7.10

- pIC50 (tubulin): 4.96
SMILES: COc1cc(OC)cc(C(C)c2ccc(OC)c(N)c2)c1 (centres unmarked) [Compound I-38]

- pIC50 (tubulin): 5.49
SMILES: COc1ccc(C(C)c2cc(OC)c(OC)c(OC)c2)cc1O (centres unmarked) [Compound I-1]

SMILES: COc1ccc(C(C)c2cc(OC)c(OC)c(OC)c2)cc1F (centres unmarked) [Compound I-9]
- pIC50 (tubulin): 5.22
- pIC50 (HCT116; [4]): 7.07

- pIC50 (tubulin): 5.22 to 5.30
SMILES: COc1ccc(C(C)c2cc(OC)c(OC)c(OC)c2)cc1O (single isomer, unassigned) [Compound I-1a]
- Inhibiting activity of tubulin polymerisation, in words (tubulin): the same capacity to inhibit tubulin polymerisation

SMILES: COc1ccc(C(C)c2cc(OC)c(OC)c(OC)c2)cc1OP(=O)(O)O (centres unmarked) [Compound I-16]
- pIC50 (HCT116; read-out: IC50 for different cell lines, HCT116, 72 hours of incubation, in DMSO): 7.05
- pIC50 (HCT116; read-out: IC50 for different cell lines, HCT116, 72 hours of incubation, in water): 7.00
- pIC50 (MDA-MB 231; MDA-MB-231, 72 h): 7.30
- Number of vascular tubes (EAhy926): major decrease in the number of vascular tubes

SMILES: COc1ccc(C(C)c2cc(OC)c(OC)c(OC)c2)cc1OC(=O)CN(C)C (centres unmarked) [Compound I-14]
- pIC50 (HCT116; 72 hours of incubation, in DMSO, read-out: IC50 for different cell lines, HCT116): 7.30
- pIC50 (HCT116; 72 hours of incubation, in water, read-out: IC50 for different cell lines, HCT116): 7.05
- pIC50 (MDA-MB 231; MDA-MB-231, 72 hours of incubation, in DMSO): 7.30

- pIC50 (tubulin): 4.96
SMILES: COc1cc(OC)cc(C(C)c2ccc(OC)c(O)c2)c1 (centres unmarked) [Compound I-18]
